Earlier results in patent US20050059087A1, “Antibodies directed to the deletion mutants of epidermal growth factor receptor and uses thereof” (priority 2003, published 2005).

What was measured:
[1] = vs methotrexate, daunorubicin, vincristine; cited from earlier work
[2] = test system: P388 lymphocytic leukemia system; conditions: in vivo; cited from earlier work
[3] = test system: human acute lymphoblastic leukemia line CEM; conditions: in vitro; cited from earlier work
[4] = test system: P388, L1210, and LY5178 murine leukemic cell suspensions; conditions: in vitro; cited from earlier work
L1210 cells = conditions: treatment of L1210 cells in vivo; cited from earlier work

Question: Which results are given for `COc1cc2cc(c1Cl)N(C)C(=O)C[C@H](OC(=O)[C@H](C)N(C)C(C)=O)[C@]1(C)O[C@H]1[C@H](C)[C@@H]1C[C@@](O)(NC(=O)O1)[C@H](OC)/C=C/C=C(\C)C2` [Maytansine]?
Answer: Cytotoxicity relative to conventional cancer chemotherapeutic agents [1]: 100 to 1000 fold; Dosage range over which tumor growth was inhibited [2]: 50- to 100 fold; Inhibitory concentration [3]: ≥ 10^−7 mg/ml; Inhibitory doses [4]: 10^−3 to 10^−1 µg/µl; Cells accumulating in mitosis (L1210 cells): 67%
